Results as given in ChEMBL document CHEMBL5344425, “Discovery of 5-(Pyrimidin-2-ylamino)-1H-indole-2-carboxamide Derivatives as Nur77 Modulators with Selective and Potent Activity Against Triple-Negative Breast Cancer” (J Med Chem, 2023).
pIC50, pKd: −log10 of the molar value. Activity calls are given as the source filed them. No cut-off for these calls is given here.

target: T1, Nuclear receptor subfamily 4immunitygroup A member 1 (Homo sapiens, UniProt P22736); assay: Antagonist activity at Nur77 ligand binding domain (unknown origin) transfected in HEK293T cells cotransfected with pG5-Luc assessed as inhibition of receptor transcriptional activity at 2 uM measured after 12 hrs by luciferase reporter gene assay; type: cell-based; details: filed as antagonist
T1 sequence (P22736 whole entry, the tested form may be a part): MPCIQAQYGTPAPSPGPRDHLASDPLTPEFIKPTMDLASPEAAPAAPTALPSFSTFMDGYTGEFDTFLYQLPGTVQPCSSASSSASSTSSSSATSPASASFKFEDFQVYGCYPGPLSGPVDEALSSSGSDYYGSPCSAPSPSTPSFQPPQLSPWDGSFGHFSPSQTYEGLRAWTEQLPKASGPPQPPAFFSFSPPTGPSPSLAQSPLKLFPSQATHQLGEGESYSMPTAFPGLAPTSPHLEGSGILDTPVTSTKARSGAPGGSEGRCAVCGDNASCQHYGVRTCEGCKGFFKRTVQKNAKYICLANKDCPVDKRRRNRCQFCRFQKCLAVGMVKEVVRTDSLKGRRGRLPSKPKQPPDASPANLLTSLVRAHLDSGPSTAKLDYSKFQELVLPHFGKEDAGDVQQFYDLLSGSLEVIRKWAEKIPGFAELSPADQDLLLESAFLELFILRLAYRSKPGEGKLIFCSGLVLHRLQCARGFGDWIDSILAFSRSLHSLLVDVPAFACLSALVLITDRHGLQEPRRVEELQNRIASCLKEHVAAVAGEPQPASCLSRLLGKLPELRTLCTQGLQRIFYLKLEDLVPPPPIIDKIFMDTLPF

In the case of `CC1=C(O)C(=O)C=C2C1=CC=C1[C@@]2(C)CC[C@@]2(C)[C@@H]3C[C@](C)(C(=O)O)CC[C@]3(C)CC[C@]12C` [CELASTROL], the inhibition was “Active”.

system: not listed separately; assay: Toxicity in Zebra fish AB embryo assessed as mortality rate at 1.25 uM measured after 24 to 72 hrs; set-up: species or system Danio rerio; details: AB, zebrafish, time 24-72 hrs

Work on `CC1=C(O)C(=O)C=C2C1=CC=C1[C@@]2(C)CC[C@@]2(C)[C@@H]3C[C@](C)(C(=O)O)CC[C@]3(C)CC[C@]12C` [CELASTROL] yielded a mortality at 1.25 µM of 100%.

target: T1, Nuclear receptor subfamily 4immunitygroup A member 1; assay: Binding affinity to His-tagged Nur77 ligand binding domain (unknown origin) by surface plasmon resonance assay; details: not given

First: O=C(N/N=C/c1ccncc1)c1ccc(Nc2ccnc3ccccc23)cc1
Second: CN(C)CCCNC(=O)c1cc2ccc(Nc3nccc(-c4cccnc4)n3)cc2[nH]1
The pKd of the first is 0.52 log units lower: 5.93 for the first, 6.45 for the second.

system: not listed separately; assay: Cytotoxicity against human MCF-10A cells assessed as inhibition of cell growth measured after 24 hrs by MTT assay; type: toxicity, cell-based; details: not given

Going from `Cc1nc(-c2ccnc(Nc3ccc4[nH]c(C(=O)NCCN5CCCC5)cc4c3)n2)c(C)s1` to `Cc1nc(-c2ccnc(Nc3ccc4[nH]c(C(=O)NCCN(C)C)cc4c3)n2)c(C)s1`, the IC50 at 24 h falls from > 20 µM to 15 µM.

Compared with `CN(C)CCNC(=O)c1cc2cc(Nc3nccc(-c4ccccc4)n3)ccc2[nH]1`, `CC(C)N(CCNC(=O)c1cc2cc(Nc3nccc(-c4ccccc4)n3)ccc2[nH]1)C(C)C` is lower in IC50 at 24 h: > 20 µM for the first, 4.05 µM for the second.

`COc1ccccc1-c1ccnc(Nc2ccc3[nH]c(C(=O)NCCCN(C)C)cc3c2)n1` and `CCN(CC)CCCNC(=O)c1cc2cc(Nc3nccc(-c4ccccc4OC)n3)ccc2[nH]1` cannot be ordered by IC50 at 24 h: > 20 µM for the first, > 20 µM for the second.

Going from `CN(C)CCCNC(=O)c1cc2cc(Nc3nccc(-c4ccc(Cl)s4)n3)ccc2[nH]1` to `CN(C)CCCNC(=O)c1cc2cc(Nc3nccc(-c4cccs4)n3)ccc2[nH]1`, the IC50 at 24 h rises from 7.43 µM to > 20 µM.

Going from `CCN(CC)CCCNC(=O)c1cc2cc(Nc3nccc(-c4cccnc4)n3)ccc2[nH]1` to `CCN(CC)CCCNC(=O)c1cc2cc(Nc3nccc(-c4cccs4)n3)ccc2[nH]1`, the IC50 at 24 h falls from > 20 µM to 14.3 µM.

First: CN(C)CCCNC(=O)c1cc2ccc(Nc3nccc(-c4cccnc4)n3)cc2[nH]1
Second: CN(C)CCCNC(=O)c1cc2cc(Nc3nccc(-c4ccc(C(F)(F)F)cc4)n3)ccc2[nH]1
The IC50 at 24 h of the first is higher: > 20 µM for the first, 2.09 µM for the second.

Going from `Cc1nc(-c2ccnc(Nc3ccc4[nH]c(C(=O)NCCCN(C)C)cc4c3)n2)c(C)s1` to `CCN(CC)CCCNC(=O)c1cc2cc(Nc3nccc(-c4cccc(OCc5ccccc5)c4)n3)ccc2[nH]1`, the IC50 at 24 h rises from 15.9 µM to > 20 µM.

Going from `CCN(CC)CCCNC(=O)c1cc2cc(Nc3nccc(-c4cc(OCc5ccccc5)cc(OCc5ccccc5)c4)n3)ccc2[nH]1` to `O=C(NCCN1CCCCC1)c1cc2cc(Nc3nccc(-c4cccc(OCc5ccccc5)c4)n3)ccc2[nH]1`, the IC50 at 24 h falls from 2.89 µM to 1.76 µM (1.6-fold).

In the case of `CC1=C(O)C(=O)C=C2C1=CC=C1[C@@]2(C)CC[C@@]2(C)[C@@H]3C[C@](C)(C(=O)O)CC[C@]3(C)CC[C@]12C` [CELASTROL], the IC50 at 24 h was 5.45 µM.

system: not listed separately; assay: Toxicity in Zebra fish AB embryo assessed as mortality rate at 1.25 to 5 uM measured after 24 hrs; set-up: species or system Danio rerio; details: zebrafish, dose 1.25-5 µM

Molecule `CC1=C(O)C(=O)C=C2C1=CC=C1[C@@]2(C)CC[C@@]2(C)[C@@H]3C[C@](C)(C(=O)O)CC[C@]3(C)CC[C@]12C` [CELASTROL] has a mortality at 24 h, up to 5 µM of 100%.

system: T47D; assay: Antiproliferative activity against human T47D cells assessed as inhibition of cell growth measured after 24 hrs by MTT assay; type: functional, cell-based; details: not given

First: Cc1nc(-c2ccnc(Nc3ccc4[nH]c(C(=O)NCCN5CCCC5)cc4c3)n2)c(C)s1
Second: Cc1nc(-c2ccnc(Nc3ccc4[nH]c(C(=O)NCCN(C)C)cc4c3)n2)c(C)s1
The pIC50 of the first is lower: < 4.70 for the first, 5.44 for the second. The second is the more potent here.

First: CN(C)CCNC(=O)c1cc2cc(Nc3nccc(-c4ccccc4)n3)ccc2[nH]1
Second: CC(C)N(CCNC(=O)c1cc2cc(Nc3nccc(-c4ccccc4)n3)ccc2[nH]1)C(C)C
The pIC50 of the first is lower: < 4.70 for the first, 5.03 for the second. The second is the more potent here.

Compared with `COc1ccccc1-c1ccnc(Nc2ccc3[nH]c(C(=O)NCCCN(C)C)cc3c2)n1`, `CCN(CC)CCCNC(=O)c1cc2cc(Nc3nccc(-c4ccccc4OC)n3)ccc2[nH]1` is higher in pIC50: < 4.70 for the first, 4.89 for the second.

`CN(C)CCCNC(=O)c1cc2cc(Nc3nccc(-c4ccc(Cl)s4)n3)ccc2[nH]1` and `CN(C)CCCNC(=O)c1cc2cc(Nc3nccc(-c4cccs4)n3)ccc2[nH]1` are the same in pIC50: 5.37 for the first, 5.37 for the second.

First: CCN(CC)CCCNC(=O)c1cc2cc(Nc3nccc(-c4cccnc4)n3)ccc2[nH]1
Second: CCN(CC)CCCNC(=O)c1cc2cc(Nc3nccc(-c4cccs4)n3)ccc2[nH]1
The pIC50 of the first is lower: < 4.70 for the first, 5.08 for the second.

First: CN(C)CCCNC(=O)c1cc2ccc(Nc3nccc(-c4cccnc4)n3)cc2[nH]1
Second: CN(C)CCCNC(=O)c1cc2cc(Nc3nccc(-c4ccc(C(F)(F)F)cc4)n3)ccc2[nH]1
The pIC50 of the first is lower: < 4.70 for the first, 5.03 for the second. The second is the more potent here.

Compared with `Cc1nc(-c2ccnc(Nc3ccc4[nH]c(C(=O)NCCCN(C)C)cc4c3)n2)c(C)s1`, `CCN(CC)CCCNC(=O)c1cc2cc(Nc3nccc(-c4cccc(OCc5ccccc5)c4)n3)ccc2[nH]1` is lower in pIC50: 4.80 for the first, < 4.70 for the second.

First: CCN(CC)CCCNC(=O)c1cc2cc(Nc3nccc(-c4cc(OCc5ccccc5)cc(OCc5ccccc5)c4)n3)ccc2[nH]1
Second: O=C(NCCN1CCCCC1)c1cc2cc(Nc3nccc(-c4cccc(OCc5ccccc5)c4)n3)ccc2[nH]1
The pIC50 of the first is higher: 5.72 for the first, < 4.70 for the second. The first is the more potent here.

With `CC1=C(O)C(=O)C=C2C1=CC=C1[C@@]2(C)CC[C@@]2(C)[C@@H]3C[C@](C)(C(=O)O)CC[C@]3(C)CC[C@]12C` [CELASTROL] the pIC50 was < 4.70.

target: T1, Nuclear receptor subfamily 4immunitygroup A member 1; assay: Binding affinity to His-tagged Nur77 ligand binding domain (unknown origin) at 10 uM by surface plasmon resonance assay; details: filed as modulator

For `CN(C)CCNC(=O)c1cc2cc(Nc3nccc(-c4ccccc4)n3)ccc2[nH]1`, the Activity was “Active”.
For `CN(C)CCCNC(=O)c1cc2cc(Nc3nccc(-c4ccc(Cl)s4)n3)ccc2[nH]1`, the Activity was “Active”.
For `CN(C)CCCNC(=O)c1cc2ccc(Nc3nccc(-c4cccnc4)n3)cc2[nH]1`, the Activity was “Active”.
With `CN(C)CCCNC(=O)c1cc2cc(Nc3nccc(-c4cccs4)n3)ccc2[nH]1` the Activity was “Active”.
In the case of `Cc1nc(-c2ccnc(Nc3ccc4[nH]c(C(=O)NCCN(C)C)cc4c3)n2)c(C)s1`, the Activity was “Active”.
For `CCN(CC)CCCNC(=O)c1cc2cc(Nc3nccc(-c4cccs4)n3)ccc2[nH]1`, the Activity was “Active”.
With `CCN(CC)CCCNC(=O)c1cc2cc(Nc3nccc(-c4ccccc4OC)n3)ccc2[nH]1` the Activity was “Active”.
In the case of `CC1=C(O)C(=O)C=C2C1=CC=C1[C@@]2(C)CC[C@@]2(C)[C@@H]3C[C@](C)(C(=O)O)CC[C@]3(C)CC[C@]12C` [CELASTROL], the Activity was “Active”.

system: MDA-MB-231; assay: Antiproliferative activity against human MDA-MB-231 cells assessed as inhibition of cell growth measured after 24 hrs by MTT assay; type: functional, cell-based; details: MDA-MB-231, 24 h

`Cc1nc(-c2ccnc(Nc3ccc4[nH]c(C(=O)NCCN5CCCC5)cc4c3)n2)c(C)s1` and `Cc1nc(-c2ccnc(Nc3ccc4[nH]c(C(=O)NCCN(C)C)cc4c3)n2)c(C)s1` cannot be ordered by pIC50: < 4.70 for the first, < 4.70 for the second.

`CN(C)CCNC(=O)c1cc2cc(Nc3nccc(-c4ccccc4)n3)ccc2[nH]1` and `CC(C)N(CCNC(=O)c1cc2cc(Nc3nccc(-c4ccccc4)n3)ccc2[nH]1)C(C)C` are within 0.2 log units of each other in pIC50: 5.09 for the first, 4.95 for the second.

First: COc1ccccc1-c1ccnc(Nc2ccc3[nH]c(C(=O)NCCCN(C)C)cc3c2)n1
Second: CCN(CC)CCCNC(=O)c1cc2cc(Nc3nccc(-c4ccccc4OC)n3)ccc2[nH]1
The pIC50 of the first is 0.24 log units higher: 5.32 for the first, 5.08 for the second.

First: CN(C)CCCNC(=O)c1cc2cc(Nc3nccc(-c4ccc(Cl)s4)n3)ccc2[nH]1
Second: CN(C)CCCNC(=O)c1cc2cc(Nc3nccc(-c4cccs4)n3)ccc2[nH]1
The pIC50 of the first is higher: 5.21 for the first, < 4.70 for the second. The first is the more potent here.

First: CCN(CC)CCCNC(=O)c1cc2cc(Nc3nccc(-c4cccnc4)n3)ccc2[nH]1
Second: CCN(CC)CCCNC(=O)c1cc2cc(Nc3nccc(-c4cccs4)n3)ccc2[nH]1
The pIC50 of the first is 0.51 log units lower: 4.98 for the first, 5.49 for the second. The second is the more potent here.

First: CN(C)CCCNC(=O)c1cc2ccc(Nc3nccc(-c4cccnc4)n3)cc2[nH]1
Second: CN(C)CCCNC(=O)c1cc2cc(Nc3nccc(-c4ccc(C(F)(F)F)cc4)n3)ccc2[nH]1
The pIC50 of the first is 0.53 log units lower: 5.51 for the first, 6.04 for the second. The second is the more potent here.

`Cc1nc(-c2ccnc(Nc3ccc4[nH]c(C(=O)NCCCN(C)C)cc4c3)n2)c(C)s1` and `CCN(CC)CCCNC(=O)c1cc2cc(Nc3nccc(-c4cccc(OCc5ccccc5)c4)n3)ccc2[nH]1` cannot be ordered by pIC50: < 4.70 for the first, < 4.70 for the second.

Compared with `CCN(CC)CCCNC(=O)c1cc2cc(Nc3nccc(-c4cc(OCc5ccccc5)cc(OCc5ccccc5)c4)n3)ccc2[nH]1`, `O=C(NCCN1CCCCC1)c1cc2cc(Nc3nccc(-c4cccc(OCc5ccccc5)c4)n3)ccc2[nH]1` is higher in pIC50: < 4.70 for the first, 5.27 for the second.
